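Grown in 96-well plates, cells were treated for 48 hours with each compound at five concentrations. Insufficient inhibition: endpoint recorded as highest concentration tested. GI50 is the concentration that inhibits growth by half.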 Calls of active or inactive are those of the source. No stated cut-off is given here; in the data, active = GI50 up to about 1.1 µM and inactive = higher.
Key:
Assay in all cases: growth of human tumour cells (NCI), 48 h
786-0 = tested on: 786-0
A498 = tested on: A498
A549 = tested on: A549
ACHN = tested on: ACHN
BT-549 = tested on: BT-549
CAKI-1 = tested on: CAKI-1
CCRF-CEM = tested on: CCRF-CEM
COLO 205 = tested on: COLO 205
DU-145 = tested on: DU-145
EKVX = tested on: EKVX
HCT-116 = tested on: HCT-116
HCT-15 = tested on: HCT-15
HL-60 = tested on: HL-60
HOP-62 = tested on: HOP-62
HOP-92 = tested on: HOP-92
HT-29 = tested on: HT-29
Hs-578T = tested on: Hs-578T
IGROV-1 = tested on: IGROV-1
K562 = tested on: K562
KM12 = tested on: KM12
LOX IMVI = tested on: LOX IMVI
M14 = tested on: M14
MCF7 = tested on: MCF7
MDA-MB-231 = tested on: MDA-MB-231
MDA-MB-435 = tested on: MDA-MB-435
MDA-N = tested on: MDA-N
MOLT-4 = tested on: MOLT-4
Malme-3M = tested on: Malme-3M
NCI-H226 = tested on: NCI-H226
NCI-H23 = tested on: NCI-H23
NCI-H460 = tested on: NCI-H460
NCI-H522 = tested on: NCI-H522
NCI/ADR-RES = tested on: NCI/ADR-RES
OVCAR-3 = tested on: OVCAR-3
OVCAR-4 = tested on: OVCAR-4
OVCAR-5 = tested on: OVCAR-5
OVCAR-8 = tested on: OVCAR-8
PC-3 = tested on: PC-3
RPMI-8226 = tested on: RPMI-8226
RXF 393 = tested on: RXF 393
SF-268 = tested on: SF-268
SF-295 = tested on: SF-295
SF-539 = tested on: SF-539
SK-MEL-28 = tested on: SK-MEL-28
SK-MEL-2 = tested on: SK-MEL-2
SK-MEL-5 = tested on: SK-MEL-5
SK-OV-3 = tested on: SK-OV-3
SN12C = tested on: SN12C
SNB-19 = tested on: SNB-19
SNB-75 = tested on: SNB-75
SR = tested on: SR
SW-620 = tested on: SW-620
T47D = tested on: T47D
TK-10 = tested on: TK-10
U-251 = tested on: U-251
UACC-257 = tested on: UACC-257
UACC-62 = tested on: UACC-62
UO-31 = tested on: UO-31

Question: With `O=C(O)C(Cc1ccc(O)c([N+](=O)[O-])c1)N1C(=O)c2ccccc2C1=O` (stereo unspecified) as the molecule, how does the GI50 (786-0) read?
Answer: > 100 µM (inactive)

Question: And the GI50 (A498)?
Answer: > 100 µM (inactive)

Question: What about the GI50 (A549) of the same molecule?
Answer: > 100 µM (inactive)

Question: And the GI50 (ACHN)?
Answer: > 100 µM (inactive)

Question: And the GI50 (BT-549)?
Answer: > 100 µM (inactive)

Question: What about the GI50 (CAKI-1) of the same molecule?
Answer: > 100 µM (inactive)

Question: And the GI50 (CCRF-CEM)?
Answer: > 100 µM (inactive)

Question: And the GI50 (COLO 205)?
Answer: > 100 µM (inactive)

Question: What about the GI50 (DU-145) of the same molecule?
Answer: > 100 µM (inactive)

Question: And the GI50 (EKVX)?
Answer: > 100 µM (inactive)

Question: And the GI50 (HCT-116)?
Answer: > 100 µM (inactive)

Question: And the GI50 (HCT-15)?
Answer: > 100 µM

Question: What about the GI50 (HL-60) of the same molecule?
Answer: 18.6 µM (inactive)

Question: And the GI50 (HOP-62)?
Answer: > 100 µM (inactive)

Question: And the GI50 (HOP-92)?
Answer: > 100 µM (inactive)

Question: And the GI50 (HT-29)?
Answer: > 100 µM (inactive)

Question: And the GI50 (Hs-578T)?
Answer: > 100 µM (inactive)

Question: And the GI50 (IGROV-1)?
Answer: > 100 µM (inactive)

Question: And the GI50 (K562)?
Answer: > 100 µM (inactive)

Question: And the GI50 (KM12)?
Answer: > 100 µM (inactive)

Question: What about the GI50 (LOX IMVI) of the same molecule?
Answer: > 100 µM (inactive)

Question: What about the GI50 (M14) of the same molecule?
Answer: > 100 µM (inactive)

Question: What about the GI50 (MCF7) of the same molecule?
Answer: > 100 µM (inactive)

Question: What about the GI50 (MDA-MB-231) of the same molecule?
Answer: > 100 µM (inactive)

Question: And the GI50 (MDA-MB-435)?
Answer: > 100 µM (inactive)

Question: And the GI50 (MDA-N)?
Answer: > 100 µM (inactive)

Question: And the GI50 (MOLT-4)?
Answer: > 100 µM (inactive)

Question: What about the GI50 (Malme-3M) of the same molecule?
Answer: > 100 µM (inactive)

Question: What about the GI50 (NCI-H226) of the same molecule?
Answer: > 100 µM (inactive)

Question: What about the GI50 (NCI-H23) of the same molecule?
Answer: > 100 µM (inactive)

Question: And the GI50 (NCI-H460)?
Answer: > 100 µM (inactive)

Question: And the GI50 (NCI-H522)?
Answer: > 100 µM (inactive)

Question: And the GI50 (NCI/ADR-RES)?
Answer: > 100 µM (inactive)

Question: And the GI50 (OVCAR-3)?
Answer: > 100 µM (inactive)

Question: What about the GI50 (OVCAR-4) of the same molecule?
Answer: > 100 µM (inactive)

Question: And the GI50 (OVCAR-5)?
Answer: > 100 µM (inactive)

Question: And the GI50 (OVCAR-8)?
Answer: > 100 µM (inactive)

Question: What about the GI50 (PC-3) of the same molecule?
Answer: > 100 µM (inactive)

Question: What about the GI50 (RPMI-8226) of the same molecule?
Answer: > 100 µM (inactive)

Question: And the GI50 (RXF 393)?
Answer: > 100 µM (inactive)

Question: What about the GI50 (SF-268) of the same molecule?
Answer: > 100 µM (inactive)

Question: And the GI50 (SF-295)?
Answer: > 100 µM (inactive)

Question: And the GI50 (SF-539)?
Answer: > 100 µM (inactive)

Question: And the GI50 (SK-MEL-28)?
Answer: > 100 µM (inactive)

Question: And the GI50 (SK-MEL-2)?
Answer: > 100 µM (inactive)

Question: What about the GI50 (SK-MEL-5) of the same molecule?
Answer: > 100 µM (inactive)

Question: And the GI50 (SK-OV-3)?
Answer: > 100 µM (inactive)

Question: What about the GI50 (SN12C) of the same molecule?
Answer: > 100 µM (inactive)

Question: And the GI50 (SNB-19)?
Answer: > 100 µM (inactive)

Question: What about the GI50 (SNB-75) of the same molecule?
Answer: > 100 µM (inactive)

Question: And the GI50 (SR)?
Answer: > 100 µM (inactive)

Question: What about the GI50 (SW-620) of the same molecule?
Answer: > 100 µM (inactive)

Question: What about the GI50 (T47D) of the same molecule?
Answer: > 100 µM (inactive)

Question: What about the GI50 (TK-10) of the same molecule?
Answer: > 100 µM (inactive)

Question: And the GI50 (U-251)?
Answer: > 100 µM (inactive)

Question: And the GI50 (UACC-257)?
Answer: > 100 µM (inactive)

Question: What about the GI50 (UACC-62) of the same molecule?
Answer: > 100 µM (inactive)

Question: What about the GI50 (UO-31) of the same molecule?
Answer: > 100 µM (inactive)

Question: What does the source list for `Cn1c(=O)c2nc(COCc3nc4c(=O)n(C)c(=O)n(C)c4[nH]3)[nH]c2n(C)c1=O`?
Answer: GI50 (786-0): > 100 µM (inactive); GI50 (A498): > 100 µM (inactive); GI50 (A549): > 100 µM (inactive); GI50 (ACHN): > 100 µM (inactive); GI50 (BT-549): > 100 µM (inactive); GI50 (CAKI-1): > 100 µM (inactive); GI50 (CCRF-CEM): > 100 µM (inactive); GI50 (COLO 205): > 100 µM (inactive); GI50 (DU-145): > 100 µM (inactive); GI50 (EKVX): > 100 µM (inactive); GI50 (HCT-116): > 100 µM (inactive); GI50 (HCT-15): > 100 µM; GI50 (HL-60): > 100 µM (inactive); GI50 (HOP-62): > 100 µM (inactive); GI50 (HOP-92): > 100 µM (inactive); GI50 (HT-29): > 100 µM (inactive); GI50 (Hs-578T): > 100 µM (inactive); GI50 (IGROV-1): > 100 µM (inactive); GI50 (K562): > 100 µM (inactive); GI50 (KM12): > 100 µM (inactive); GI50 (LOX IMVI): > 100 µM (inactive); GI50 (M14): > 100 µM (inactive); GI50 (MCF7): > 100 µM (inactive); GI50 (MDA-MB-231): > 100 µM (inactive); GI50 (MDA-MB-435): > 100 µM (inactive); GI50 (MDA-N): > 100 µM (inactive); GI50 (MOLT-4): > 100 µM (inactive); GI50 (Malme-3M): > 100 µM (inactive); GI50 (NCI-H226): > 100 µM (inactive); GI50 (NCI-H23): > 100 µM (inactive); GI50 (NCI-H460): > 100 µM (inactive); GI50 (NCI-H522): > 100 µM (inactive); GI50 (NCI/ADR-RES): > 100 µM (inactive); GI50 (OVCAR-3): > 100 µM (inactive); GI50 (OVCAR-4): > 100 µM (inactive); GI50 (OVCAR-5): > 100 µM (inactive); GI50 (OVCAR-8): > 100 µM (inactive); GI50 (PC-3): > 100 µM (inactive); GI50 (RPMI-8226): > 100 µM (inactive); GI50 (RXF 393): > 100 µM (inactive); GI50 (SF-268): > 100 µM (inactive); GI50 (SF-295): > 100 µM (inactive); GI50 (SF-539): > 100 µM (inactive); GI50 (SK-MEL-28): > 100 µM (inactive); GI50 (SK-MEL-2): > 100 µM (inactive); GI50 (SK-MEL-5): > 100 µM (inactive); GI50 (SK-OV-3): > 100 µM (inactive); GI50 (SN12C): > 100 µM (inactive); GI50 (SNB-19): > 100 µM (inactive); GI50 (SNB-75): > 100 µM (inactive); GI50 (SR): > 100 µM (inactive); GI50 (SW-620): > 100 µM (inactive); GI50 (T47D): > 100 µM (inactive); GI50 (TK-10): > 100 µM (inactive); GI50 (U-251): > 100 µM (inactive); GI50 (UACC-257): > 100 µM (inactive); GI50 (UACC-62): > 100 µM (inactive); GI50 (UO-31): > 100 µM (inactive)
